Source: patent US9546401B2, “Assays and methods for selecting a treatment regimen for a subject with depression” (The General Hospital Corporation, priority 2011, dated 2017)

Tests used:
[1] = test system: SSRI-resistant outpatients with major depressive disorder (MDD)
Method: Documentation of the presence of any side effect or adverse event is completed at every visit using the SAFTEE-SI. Subjects can contact a clinician at any time between visits concerning adverse events or worsening of symptoms. Suicidal ideation is assessed at each visit. Subjects who are felt by the study clinician to be at high risk for suicide are discontinued from the study and referred for hospitalization and further treatment if clinically indicated (See Tables 4 & 5 below).
One-way analysis of variance can be used to assess differences in total number of SAFTEE-SI AEs between baseline and endpoint.

[2] = test system: MDD patients positive or negative for SNP biomarkers; details: subjects positive for MTR 2756 AG or GG versus negative
Excerpt: A responder is indicated by a reduction of at least about 50% in HAMD-28 over the evaluation period.

[3] = Trial 2, 15 mg + SSRI, versus placebo

CN1c2c(nc(N)[nH]c2=O)NC[C@@H]1CNc1ccc(C(=O)N[C@@H](CCC(=O)O)C(=O)O)cc1 [6(S)-5-MTHF, 6(S)-5-methyltetrahydrofolate]
number of adverse events (SAFTEE-SI) ([1]; SSRI + 15 mg/day versus SSRI + placebo): no significant differences in the number of adverse events
discontinuation due to overall adverse side-effects or exclusion events ([1]; Trial 2): no difference in discontinuation
Cardiovascular side effects, Frequency ([1]; Trial 2, 15 mg + SSRI, n = 42): 0
Cardiovascular side effects, Frequency (%) ([1]; Trial 2, 15 mg + SSRI, n = 42): (0%)
Gastrointestinal side effects, Frequency ([1]; Trial 2, 15 mg + SSRI, n = 42): 7
Gastrointestinal side effects, Frequency (%) ([1]; Trial 2, 15 mg + SSRI, n = 42): (16.7%)
Infectious side effects, Frequency ([1]; Trial 2, 15 mg + SSRI, n = 42): 5
Infectious side effects, Frequency (%) ([1]; Trial 2, 15 mg + SSRI, n = 42): (11.9%)
Miscellaneous side effects, Frequency ([1]; Trial 2, 15 mg + SSRI, n = 42): 1
Miscellaneous side effects, Frequency (%) ([1]; Trial 2, 15 mg + SSRI, n = 42): (2.4%)
Psychological side effects, Frequency ([1]; Trial 2, 15 mg + SSRI, n = 42): 4
Psychological side effects, Frequency (%) ([1]; Trial 2, 15 mg + SSRI, n = 42): (9.5%)
Sexual side effects, Frequency ([1]; Trial 2, 15 mg + SSRI, n = 42): 1
Sexual side effects, Frequency (%) ([1]; Trial 2, 15 mg + SSRI, n = 42): (2.4%)
Sleep side effects, Frequency ([1]; Trial 2, 15 mg + SSRI, n = 42): 1
Sleep side effects, Frequency (%) ([1]; Trial 2, 15 mg + SSRI, n = 42): (2.4%)
Somatic side effects, Frequency ([1]; Trial 2, 15 mg + SSRI, n = 42): 6
Somatic side effects, Frequency (%) ([1]; Trial 2, 15 mg + SSRI, n = 42): (14.3%)
Cardiovascular side effects, NNH [1, 3]: =placebo
Gastrointestinal side effects, NNH [1, 3]: 53
Infectious side effects, NNH [1, 3]: <placebo
Miscellaneous side effects, NNH [1, 3]: <placebo
Psychological side effects, NNH [1, 3]: <placebo
Sexual side effects, NNH [1, 3]: 98
Sleep side effects, NNH [1, 3]: <placebo
Somatic side effects, NNH [1, 3]: <placebo
treatment effect within genetic modifiers (race, age, sex, BMI) [2]: statistically significant treatment effect
